According to doi:10.1101/2024.08.19.608619, “Discovery of potent SARS-CoV-2 nsp3 macrodomain inhibitors uncovers lack of translation to cellular antiviral response” (bioRxiv, 2024):
pIC50: −log10 of the molar value. Values joined by “and” are separate entries in the source; they are usually repeats but may differ in a detail not shown here. Equal values may be shown once. Read-outs that look alike come from different tables or passages of the source.

How the values were obtained:
[1] = test system: Ca2+ channel (L, dihydropyridine site); experiment: In vitro CEREP profiling, Ca2+ channel (L, dihydropyridine site) (antagonist radioligand); type: binding; conditions: test compound concentration 10 uM
Source text: (§1) Supplement media-1.zip/Safety_Panel_Profile.csv, table | column: perc_inhibition

[2] = test system: HeLa-ACE2 cells; conditions: for perc_max_measured: highest measured response of the dose series; for perc_min_measured: lowest measured response of the dose series
[3] = target: T1, 5-HT3 (h) (Homo sapiens, UniProt P46098); experiment: In vitro CEREP profiling, 5-HT3 (h) (antagonist radioligand); type: binding; conditions: test compound concentration 10 uM; for inhibition at 10 µM: read-out: perc_inhibition, % inhibition of the binding of a ligand specific for each target
T1 construct: purchased Eurofins Cerep (SafetyScreen44), recognised from the panel format
T1 sequence (P46098 24-478): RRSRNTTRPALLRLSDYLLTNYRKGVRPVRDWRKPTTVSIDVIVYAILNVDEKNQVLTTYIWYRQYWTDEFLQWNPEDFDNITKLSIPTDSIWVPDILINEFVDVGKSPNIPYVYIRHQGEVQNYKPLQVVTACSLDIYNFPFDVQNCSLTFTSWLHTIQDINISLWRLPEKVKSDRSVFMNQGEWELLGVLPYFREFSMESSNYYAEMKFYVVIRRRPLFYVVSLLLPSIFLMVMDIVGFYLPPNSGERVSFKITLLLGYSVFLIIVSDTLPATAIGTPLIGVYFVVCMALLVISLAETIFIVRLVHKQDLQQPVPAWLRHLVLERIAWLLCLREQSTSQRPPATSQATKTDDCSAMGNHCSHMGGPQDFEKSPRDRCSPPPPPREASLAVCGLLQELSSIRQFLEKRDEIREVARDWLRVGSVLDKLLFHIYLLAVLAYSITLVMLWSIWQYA
Source text: as §1

[4] = target: T2, CB1 (h) (Homo sapiens, UniProt P21554); experiment: In vitro CEREP profiling, CB1 (h) (agonist radioligand); type: binding; conditions: test compound 10 uM; for inhibition at 10 µM: read-out: perc_inhibition (% inhibition of the binding of a ligand specific for each target)
T2 construct: purchased Eurofins Cerep (SafetyScreen44), recognised from the panel format
Source text: as §1

[5] = target: T3, GR (h) (Homo sapiens, UniProt P04150); experiment: In vitro CEREP profiling, GR (h) (agonist radioligand); type: binding; conditions: test compound concentration 10 uM; for inhibition at 10 µM: read-out: perc_inhibition, % inhibition of the binding of a ligand specific for each target
T3 construct: purchased Eurofins Cerep (SafetyScreen44), recognised from the panel format
T3 sequence (P04150 1-777): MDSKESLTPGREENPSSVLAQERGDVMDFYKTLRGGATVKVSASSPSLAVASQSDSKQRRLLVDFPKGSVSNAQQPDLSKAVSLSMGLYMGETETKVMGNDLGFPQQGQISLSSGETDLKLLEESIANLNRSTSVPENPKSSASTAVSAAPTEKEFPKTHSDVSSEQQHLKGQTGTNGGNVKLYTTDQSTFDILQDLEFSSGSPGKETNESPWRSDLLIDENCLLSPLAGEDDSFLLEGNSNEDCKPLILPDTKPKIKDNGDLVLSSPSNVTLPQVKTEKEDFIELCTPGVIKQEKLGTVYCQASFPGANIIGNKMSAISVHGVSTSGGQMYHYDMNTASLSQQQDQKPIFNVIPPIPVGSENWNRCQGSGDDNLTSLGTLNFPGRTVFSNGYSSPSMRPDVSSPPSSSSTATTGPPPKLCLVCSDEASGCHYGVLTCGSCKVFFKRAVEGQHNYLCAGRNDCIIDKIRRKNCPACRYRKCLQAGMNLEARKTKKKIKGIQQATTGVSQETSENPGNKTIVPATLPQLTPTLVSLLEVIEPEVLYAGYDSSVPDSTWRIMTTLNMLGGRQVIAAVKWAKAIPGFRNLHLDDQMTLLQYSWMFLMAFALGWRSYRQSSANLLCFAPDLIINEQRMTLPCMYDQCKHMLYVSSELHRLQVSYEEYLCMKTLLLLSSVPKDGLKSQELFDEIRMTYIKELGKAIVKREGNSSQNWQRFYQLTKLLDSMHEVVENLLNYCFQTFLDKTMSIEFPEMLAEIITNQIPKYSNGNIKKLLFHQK
Source text: as §1

[6] = target: T4, alpha2A (h) (Homo sapiens, UniProt P08913); experiment: In vitro CEREP profiling, alpha2A (h) (antagonist radioligand); type: binding; conditions: test compound 10 uM; for inhibition at 10 µM: read-out: perc_inhibition (% inhibition of the binding of a ligand specific for each target)
T4 construct: purchased Eurofins Cerep (SafetyScreen44), recognised from the panel format
T4 sequence (P08913 1-465): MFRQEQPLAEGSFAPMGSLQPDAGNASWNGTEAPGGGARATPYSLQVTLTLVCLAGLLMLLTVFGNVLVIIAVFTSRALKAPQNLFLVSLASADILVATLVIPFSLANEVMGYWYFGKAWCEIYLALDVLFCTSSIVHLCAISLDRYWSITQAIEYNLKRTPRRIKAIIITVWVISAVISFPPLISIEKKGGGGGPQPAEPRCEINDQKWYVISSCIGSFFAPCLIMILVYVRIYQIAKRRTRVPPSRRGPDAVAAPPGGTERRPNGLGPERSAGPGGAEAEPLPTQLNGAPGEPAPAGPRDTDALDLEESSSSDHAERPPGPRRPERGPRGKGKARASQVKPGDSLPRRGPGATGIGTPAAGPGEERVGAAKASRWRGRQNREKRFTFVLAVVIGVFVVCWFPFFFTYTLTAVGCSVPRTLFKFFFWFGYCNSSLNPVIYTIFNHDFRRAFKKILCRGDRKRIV
Source text: as §1

[7] = test system: AR(h); experiment: In vitro CEREP profiling, AR(h) (agonist radioligand); type: binding, human; conditions: test compound concentration 10 uM
Source text: as §1

[8] = test system: CYP; experiment: CYP inhibition; type: in vitro ADME; conditions: In vitro CYP inhibition pooled; for potency: potency class in words
Source text: Supplement media-1.zip/CYP_Inhibition.csv, table | column: ic50; potency

[9] = target: T5, 5-HT2A (h) (Homo sapiens, UniProt P28223); experiment: In vitro CEREP profiling, 5-HT2A (h) (agonist radioligand); type: binding; conditions: test compound concentration 10 uM; for inhibition at 10 µM: read-out: perc_inhibition, % inhibition of the binding of a ligand specific for each target
T5 construct: purchased Eurofins Cerep (SafetyScreen44), recognised from the panel format
Source text: as §1

[10] = target: T6, N neuronal alpha4beta2 (h) (Homo sapiens, UniProt P17787+P43681); experiment: In vitro CEREP profiling, N neuronal alpha4beta2 (h) (agonist radioligand); type: binding; conditions: test compound concentration 10 uM; for inhibition at 10 µM: read-out: perc_inhibition (% inhibition of the binding of a ligand specific for each target)
T6 construct: purchased Eurofins Cerep (SafetyScreen44), recognised from the panel format
Source text: as §1

[11] = target: T7, 5-HT2B (h) (Homo sapiens, UniProt P41595); experiment: In vitro CEREP profiling, 5-HT2B (h) (agonist radioligand); type: binding; conditions: test compound concentration 10 uM; for inhibition at 10 µM: read-out: perc_inhibition, % inhibition of the binding of a ligand specific for each target
T7 construct: purchased Eurofins Cerep (SafetyScreen44), recognised from the panel format
Source text: as §1

[12] = protocol HeLa-ACE2 cytotoxicity

T5 sequence (P28223 whole entry): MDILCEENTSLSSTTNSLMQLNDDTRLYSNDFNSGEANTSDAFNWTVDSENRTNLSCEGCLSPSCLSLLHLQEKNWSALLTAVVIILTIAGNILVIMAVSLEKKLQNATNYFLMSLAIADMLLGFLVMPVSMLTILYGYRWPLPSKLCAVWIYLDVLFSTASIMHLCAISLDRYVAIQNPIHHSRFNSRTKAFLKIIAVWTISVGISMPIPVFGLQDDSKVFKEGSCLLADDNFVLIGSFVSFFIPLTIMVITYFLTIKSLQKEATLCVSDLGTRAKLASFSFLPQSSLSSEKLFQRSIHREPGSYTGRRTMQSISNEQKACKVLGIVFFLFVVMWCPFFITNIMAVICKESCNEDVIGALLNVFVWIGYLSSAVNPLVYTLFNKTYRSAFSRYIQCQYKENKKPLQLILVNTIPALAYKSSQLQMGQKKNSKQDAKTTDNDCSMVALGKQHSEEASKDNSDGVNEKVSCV
T6 sequence (P43681 29-627 limits assumed): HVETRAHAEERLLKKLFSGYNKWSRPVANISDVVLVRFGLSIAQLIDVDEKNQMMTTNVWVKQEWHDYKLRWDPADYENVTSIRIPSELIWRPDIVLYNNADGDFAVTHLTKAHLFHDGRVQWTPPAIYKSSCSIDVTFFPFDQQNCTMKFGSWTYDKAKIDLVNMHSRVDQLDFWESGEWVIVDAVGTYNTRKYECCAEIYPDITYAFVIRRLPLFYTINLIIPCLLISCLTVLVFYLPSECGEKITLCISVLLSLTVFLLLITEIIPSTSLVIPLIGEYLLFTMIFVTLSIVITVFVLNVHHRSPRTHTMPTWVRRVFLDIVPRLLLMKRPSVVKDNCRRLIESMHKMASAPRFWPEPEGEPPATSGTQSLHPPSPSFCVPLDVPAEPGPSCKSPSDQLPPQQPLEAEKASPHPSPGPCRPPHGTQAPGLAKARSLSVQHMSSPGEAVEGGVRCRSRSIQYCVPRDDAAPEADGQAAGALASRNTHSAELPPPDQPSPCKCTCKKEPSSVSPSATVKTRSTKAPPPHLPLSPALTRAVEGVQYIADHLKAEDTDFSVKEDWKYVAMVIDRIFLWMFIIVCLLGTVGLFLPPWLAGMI
T6 sequence (P17787 26-502): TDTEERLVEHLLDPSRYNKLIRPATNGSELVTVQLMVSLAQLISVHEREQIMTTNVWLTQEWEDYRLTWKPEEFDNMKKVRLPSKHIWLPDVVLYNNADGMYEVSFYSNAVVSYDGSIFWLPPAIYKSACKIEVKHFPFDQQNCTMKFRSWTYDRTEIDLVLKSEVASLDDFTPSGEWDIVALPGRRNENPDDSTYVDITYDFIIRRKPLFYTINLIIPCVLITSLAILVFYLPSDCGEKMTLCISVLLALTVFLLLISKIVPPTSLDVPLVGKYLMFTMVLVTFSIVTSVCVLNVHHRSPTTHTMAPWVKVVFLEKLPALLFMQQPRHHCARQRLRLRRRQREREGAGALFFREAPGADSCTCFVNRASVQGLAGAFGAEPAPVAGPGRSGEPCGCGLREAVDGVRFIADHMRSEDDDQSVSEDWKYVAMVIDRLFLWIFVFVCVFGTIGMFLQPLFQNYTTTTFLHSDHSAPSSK
T7 sequence (P41595 whole entry): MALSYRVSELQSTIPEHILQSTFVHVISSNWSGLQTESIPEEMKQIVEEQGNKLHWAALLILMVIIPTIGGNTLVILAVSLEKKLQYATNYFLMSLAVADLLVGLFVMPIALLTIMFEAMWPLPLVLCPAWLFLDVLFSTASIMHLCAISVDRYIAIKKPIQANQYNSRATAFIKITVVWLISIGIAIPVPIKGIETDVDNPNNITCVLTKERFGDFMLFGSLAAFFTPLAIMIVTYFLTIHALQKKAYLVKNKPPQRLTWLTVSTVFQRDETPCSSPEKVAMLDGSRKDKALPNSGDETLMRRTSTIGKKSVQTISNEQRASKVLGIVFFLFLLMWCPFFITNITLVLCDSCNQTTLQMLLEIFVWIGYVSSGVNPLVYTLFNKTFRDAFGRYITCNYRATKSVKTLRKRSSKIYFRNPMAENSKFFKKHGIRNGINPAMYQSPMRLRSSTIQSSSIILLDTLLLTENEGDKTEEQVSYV
T2 sequence (P21554 whole entry): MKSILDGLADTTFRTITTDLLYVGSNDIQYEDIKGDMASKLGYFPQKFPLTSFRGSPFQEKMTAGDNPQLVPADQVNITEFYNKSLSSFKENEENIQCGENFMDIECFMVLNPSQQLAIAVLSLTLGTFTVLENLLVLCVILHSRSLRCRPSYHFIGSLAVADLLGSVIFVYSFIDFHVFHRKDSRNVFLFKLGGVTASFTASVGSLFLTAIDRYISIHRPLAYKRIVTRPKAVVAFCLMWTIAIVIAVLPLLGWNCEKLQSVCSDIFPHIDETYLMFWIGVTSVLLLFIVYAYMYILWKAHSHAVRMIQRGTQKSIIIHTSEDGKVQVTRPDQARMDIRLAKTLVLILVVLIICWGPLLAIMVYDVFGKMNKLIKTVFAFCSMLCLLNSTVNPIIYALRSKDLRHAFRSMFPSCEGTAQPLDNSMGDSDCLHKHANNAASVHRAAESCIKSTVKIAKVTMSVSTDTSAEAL

| Compound | perc_inhibition (% inhibition of the binding of a ligand specific for each target) [1] | CC50 ([2]; HeLa-ACE2 cytotoxicity) | cc10 ([2]; HeLa-ACE2 cytotoxicity) | perc_max_measured ([2]; HeLa-ACE2 cytotoxicity) | perc_min_measured ([2]; HeLa-ACE2 cytotoxicity) | perc_inhibition (% inhibition of the binding of a ligand specific for each target) [3] | perc_inhibition (% inhibition of the binding of a ligand specific for each target) [4] | perc_inhibition (% inhibition of the binding of a ligand specific for each target) [5] | perc_inhibition (% inhibition of the binding of a ligand specific for each target) [6] | perc_inhibition (% inhibition of the binding of a ligand specific for each target) [7] | pIC50 ([8]; isoform 1A2) | potency ([8]; isoform 1A2) | potency ([8]; isoform 2C9) | potency ([8]; isoform 2C19) | potency ([8]; isoform 2D6) | potency ([8]; isoform 3A4) | CC50 [2, 12] | cc10 [2, 12] | perc_max_measured [2, 12] | perc_min_measured [2, 12] | other results |
| --- | --- | --- | --- | --- | --- | --- | --- | --- | --- | --- | --- | --- | --- | --- | --- | --- | --- | --- | --- | --- | --- |
| CC(C)[C@@H](Nc1ncnc2[nH]c(-c3cnn(C)c3C#N)cc12)c1ccc2c(n1)OCCO2 [ASAP-0010716] | 10% | > 20 µM | > 20.0 µM | 137.444% and 97.941% | 84.699% and 78.982% | 4% | 14% | 22% | 9% | 12% | 5.05 | moderate | moderate | moderate | weak | moderate |  |  |  |  | pIC50 ([8]; isoform 2C9): 5.36; pIC50 ([8]; isoform 2C19): 5.02; pIC50 ([8]; isoform 2D6): 4.64; pIC50 ([8]; isoform 3A4): 5.68; perc_inhibition (% inhibition of the binding of a ligand specific for each target) [9]: 14%; perc_inhibition (% inhibition of the binding of a ligand specific for each target) [10]: -2%; perc_inhibition (% inhibition of the binding of a ligand specific for each target) [11]: 40% |
| Cn1ncc(-c2cc3c(N[C@@H](c4ccc5c(n4)OCCO5)C(C)(C)C)ncnc3[nH]2)c1C#N [ASAP-0011221] | 21% | > 20 µM | > 10.0 µM and > 20.0 µM | 97.859% and 124.489% | 51.321% and 74.575% | 3% | 33% | 28% | 11% | 5% | < 4.30 | weak | weak | weak | weak | moderate |  |  |  |  | pIC50 ([8]; isoform 2C9): 4.37; pIC50 ([8]; isoform 2C19): < 4.30; pIC50 ([8]; isoform 2D6): 4.69; pIC50 ([8]; isoform 3A4): 5.06; perc_inhibition (% inhibition of the binding of a ligand specific for each target) [9]: -2%; perc_inhibition (% inhibition of the binding of a ligand specific for each target) [10]: -5%; perc_inhibition (% inhibition of the binding of a ligand specific for each target) [11]: -5% |
| CC(C)C(Nc1ncnc2[nH]c(C(=O)NC3CCN(C)C3)cc12)c1ccc2c(c1)S(=O)(=O)CCC2 (stereo not drawn) [ASAP-0011198] | -6% |  | > 20.0 µM | 148.177% | 90.706% |  |  |  |  | -5% |  | weak | weak | weak | weak | weak | > 20 µM | > 20.0 µM | 87.174% | 78.327% | inhibition at 10 µM [3]: 2%; inhibition at 10 µM [4]: -10%; inhibition at 10 µM [5]: 11%; inhibition at 10 µM [6]: 6%; inhibition at 10 µM [9]: 1%; inhibition at 10 µM [10]: -2%; inhibition at 10 µM [11]: 6% |
| CC(C)[C@@H](Nc1ncnc2[nH]c(-c3cnn(C)c3C#N)cc12)c1ccc2c(n1)OCCO2 [ASAP-0008418] |  |  |  |  |  |  |  |  |  |  |  |  |  |  |  |  | > 50 µM | > 50.0 µM | 131.128% and 106.847% | 59.813% and 94.114% |  |
| Cc1nn(C)cc1-c1cc2c(NC(c3ccc4c(c3)S(=O)(=O)CCC4)C(C)C)ncnc2[nH]1 (stereo not drawn) [ASAP-0011446] | 12% |  | > 20.0 µM | 134.035% | 80.92% |  |  |  |  | 6% |  |  |  |  |  |  | > 20 µM | > 20.0 µM | 92.951% | 82.728% | inhibition at 10 µM [3]: 6%; inhibition at 10 µM [4]: 0%; inhibition at 10 µM [5]: 7%; inhibition at 10 µM [6]: 5%; inhibition at 10 µM [9]: 51%; inhibition at 10 µM [10]: -2%; inhibition at 10 µM [11]: 43% |
| CC(C)C(Nc1ncnc2[nH]ccc12)c1ccc2c(c1)S(=O)(=O)CCC2 (stereo not drawn) [ASAP-0008327] |  |  |  |  |  |  |  |  |  |  |  |  |  |  |  |  |  | > 50.0 µM | 104.85% | 98.585% |  |
